Data on 28 molecules can be found in patent publication US7504517B2, “Kv1.5 potassium channel inhibitors” (Wyeth, priority 2006, dated 2009).

One experiment addresses T1, Kv1.5 (Homo sapiens, UniProt P22460).
T1 construct: expressed in transfected cells; host or cells: HEK or LTK- cells
Briefly: Kv1.5 Patch Clamp EP. In kind it is cell-based. Conditions: 1.0 μM, single point; whole cell patch clamp, Kv1.5 stably over expressed in HEK or LTK- cells. As to the method:
The external solution is standard Tyrodes solution. […] Inhibition was measured at the end of the 1 second pulses and expressed relative to controls. Initial Kv1.5 inhibition is estimated by single point determinations done at 1 μM.
(In patch-clamp work, channel activity is measured electrically.)

In another experiment the test system is L-type calcium channels. Briefly: FLIPR L-Type Calcium Channel Assay. It counts as cell-based, murine. Conditions: HL-1 cells expressing endogenous L-type calcium channels; calcium influx after 20 mM KCl; read-out: L-type Ca^2+ IC50. As to the method:
50 μL per well test compounds are added to the plates and further incubated for 15 min. in a 5% CO2 37° C. incubator. All final solutions contain the anion exchange inhibitor, probenecid (2.5 mM). The 96-well plates are then placed in the center position of the FLIPR 1 (Fluorometric Imaging Plate Reader, Molecular Devices Corporation). Cell monolayers in each well are simultaneously illuminated at 488 nm with an Argon ion laser, and fluorescence emission is monitored using a 510-570 nm bandpass filter and a cooled CCD camera. To depolarize the plasma membrane and activate L-type calcium channels, 50 μL per well of 20 mM KCl (final concentration) are dispensed simultaneously to all 96 wells using the FLIPR's automatic 96-well pipettor. Fluorescence measurements are captured for 5 min. following KCl addition. Calcium influx, expressed as % control, is calculated for each concentration of test compound and concentration-response curves and IC50 values are generated using GraphPad Prism 4.0.

T1 sequence (P22460 whole entry): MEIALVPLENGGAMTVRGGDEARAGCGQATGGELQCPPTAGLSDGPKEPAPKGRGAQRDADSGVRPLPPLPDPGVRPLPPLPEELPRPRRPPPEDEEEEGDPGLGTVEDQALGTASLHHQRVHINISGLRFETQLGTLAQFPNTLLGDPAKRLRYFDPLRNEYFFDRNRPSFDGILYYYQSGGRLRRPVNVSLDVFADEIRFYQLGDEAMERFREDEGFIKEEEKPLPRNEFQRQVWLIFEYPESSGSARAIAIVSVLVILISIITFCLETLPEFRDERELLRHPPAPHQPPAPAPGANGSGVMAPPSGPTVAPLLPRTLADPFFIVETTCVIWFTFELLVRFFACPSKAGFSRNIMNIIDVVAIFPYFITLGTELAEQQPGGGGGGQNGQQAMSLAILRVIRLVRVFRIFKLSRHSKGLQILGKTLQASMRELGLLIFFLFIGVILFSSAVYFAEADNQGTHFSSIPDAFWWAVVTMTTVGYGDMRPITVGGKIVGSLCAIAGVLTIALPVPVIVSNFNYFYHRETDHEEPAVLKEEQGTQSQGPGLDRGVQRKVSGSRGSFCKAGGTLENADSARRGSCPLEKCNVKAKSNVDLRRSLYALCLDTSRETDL

For the molecule `CCCCS(=O)(=O)NN1CC(c2ccc(C3CC3)cc2)N(CCc2ccc(OC)cc2)C1=O` (stereo not drawn) [Compound 31, 1-(Butylsulfonylamino)-3-[(4-methoxyphenyl)ethyl]-4-(4-cyclopropylphenyl)-2-imidazolidinone], at Kv1.5, the inhibition (as a rule, the change of the read-out against control, counted positive when it falls) at 1 µM amounted to 84%. Besides, the half-maximal inhibitory concentration (IC50) (usually the concentration that inhibits the measured activity by half) in the experiment on L-type calcium channels is 4 µM.

At Kv1.5, `COc1ccc(CCN2C(=O)N(NC(=O)c3ccco3)CC2c2ccc(C)c(C)c2)cc1` (stereo not drawn) [Compound 74, 1-(2-Furanoylamino)-3-[2-(4-Methoxyphenyl)ethyl]-4-(3,4-dimethylphenyl)-2-imidazolidinone] returned an inhibition at 1 µM of 85%. The IC50 with L-type calcium channels turned out to be 25 µM.

On to `COc1ccc(CCN2C(=O)N(NS(=O)(=O)CCl)CC2c2ccc(C(C)(C)C)cc2)cc1` (stereo not drawn) [Compound 39, 1-(Chloromethylsulfonylamino)-3-[2-(4-methoxyphenyl)ethyl]-4-(4-tert-butyl-phenyl)-2-imidazolidinone], for which, at Kv1.5, the inhibition at 1 µM was found to be 81%. Also, in the experiment on L-type calcium channels, the half-maximal inhibitory concentration (IC50) was found to be 12 µM.

For `COc1ccc(CCN2C(=O)N(NC(=O)CN(C)Cc3ccccc3)CC2c2ccc(C(C)(C)C)cc2)cc1` (stereo not drawn) [Compound 81, 2-(Benzylmethylamino)-N-{4-[4-(tert-butyl)phenyl]-3-[2-(4-methoxyphenyl)-ethyl]-2-oxo-imidazolidin-1-yl}-acetamide], 1 µM produced 78% inhibition against Kv1.5. For the same molecule, in the experiment with L-type calcium channels, the half-inhibitory concentration (IC50) was found to be 4 µM.

Molecule `CCCCS(=O)(=O)NN1CC(c2ccc(C(C)(C)C)cc2)N(CCc2ccc(OC)cc2)C1=O` (stereo not drawn) [Compound 32, 1-(Butylsulfonylamino)-3-[(4-methoxyphenyl)-ethyl]-4-[4-(tert-butyl)phenyl]-2-imidazolidinone] had an inhibition at 1 µM on Kv1.5 of 69%. Also, in the experiment on L-type calcium channels, the half-inhibitory concentration (IC50) worked out at 6.7 µM.

On Kv1.5, `COc1ccc(CCN2C(=O)N(NC(=O)c3ccno3)CC2c2ccc(C)c(C)c2)cc1` (stereo not drawn) [Compound 78, 1-(Isoxazol-5-ylcarbonylamino)-3-[2-(4-methoxyphenyl)-ethyl]-4-(3,4-dimethylphenyl)-2-imidazolidinone] displayed an inhibition at 1 µM of 75%. The IC50 with L-type calcium channels was determined as 11 µM.

With “tert-butyl [2-({4-(4-tert-butylphenyl)-3-[2-(4-methoxyphenyl)ethyl]-2-oxoimidazolidin-1-yl}amino)-2-oxoethyl]methylcarbamate [Compound 109]”, on Kv1.5, the “Kv1.5% inhibition @ 1.0 μM” value came to 71%. In addition, the IC50 in the experiment with L-type calcium channels was 4.6 µM.

`COc1ccc(CCN2C(=O)N(NCCc3ccccc3)CC2c2ccc(C)c(C)c2)cc1` (stereo not drawn) [Compound 97, 1-[(Phenylethyl)amino]-3-[2-(4-methoxyphenyl)ethyl]-4-(3,4-dimethylphenyl)-2-imidazolidinone] came in with an inhibition at 1 µM at Kv1.5 of 81%. Also, in the experiment on L-type calcium channels, the IC50 came to 3.5 µM.

`COc1ccc(CCN2C(=O)N(NS(=O)(=O)CC(=O)N(C)C)CC2c2ccc(OC)cc2)cc1` (stereo not drawn) [Compound 55, 1-[[2-(Dimethylamino)-2-oxoethyl]sulfonylamino]-3-[2-(4-methoxyphenyl)-ethyl]-4-(4-methoxyphenyl)-2-imidazolidinone]: the inhibition at 1 µM against Kv1.5 amounted to 29%. Besides, the IC50 in the experiment on L-type calcium channels worked out at 29 µM.

On Kv1.5, `COc1ccc(CCN2C(=O)N(NCc3ccccc3)CC2c2ccc(C(C)(C)C)cc2)cc1` (stereo not drawn) [Compound 87, 1-Benzylamino-3-[2-(4-methoxyphenyl)ethyl]-4-[4-(tert-butyl)phenyl]-2-imidazolidinone] yielded an inhibition at 1 µM of 57%. Further, the IC50 in the experiment with L-type calcium channels turned out to be 6 µM.

Regarding `COc1ccc(CCN2C(=O)N(NCc3ccc(-n4ccnc4)cc3)CC2c2ccc(C)c(C)c2)cc1` (stereo not drawn) [Compound 98, 1-[(4-(1H-imidazol-1-yl)phenylmethyl)amino]-3-[2-(4-methoxyphenyl)ethyl]-4-(3,4-dimethylphenyl)-2-imidazolidinone], the inhibition at 1 µM at Kv1.5 amounted to 83%. Also, the IC50 in the experiment on L-type calcium channels is 4.8 µM.

On Kv1.5, `COc1ccc(CCN2C(=O)N(NC(=O)C3CC3)CC2c2ccc(C)c(C)c2)cc1` (stereo not drawn) [Compound 72, Cyclopropanecarboxylic acid N-{3-[2-(4-methoxyphenyl)ethyl]-4-(3,4-dimethylphenyl)-2-oxo-imidazolidin-1-yl}-amide] displayed an inhibition at 1 µM of 81%. For the same molecule, the half-inhibitory concentration (IC50) with L-type calcium channels turned out to be 18 µM.

On to `COC(=O)c1ccc(NN2CC(c3ccc(C)c(C)c3)N(CCc3ccc(OC)cc3)C2=O)c(N)c1` (stereo not drawn) [Compound 135, methyl 3-amino-4-({4-(3,4-dimethylphenyl)-3-[2-(4-methoxyphenyl)ethyl]-2-oxoimidazolidin-1-yl}amino)benzoate], for which at 1 µM the inhibition on Kv1.5 was 53%. In the experiment on L-type calcium channels, the IC50 was 8 µM.

With `COc1ccc(CCN2C(=O)N(NCc3ccc(N(C)C)cc3)CC2c2ccc(C(C)(C)C)cc2)cc1` (stereo not drawn) [Compound 91, 1-[(4-(Dimethylamino)phenylmethyl)amino]-3-[2-(4-methoxyphenyl)ethyl]-4-[4-(tert-butyl)phenyl]-2-imidazolidinone], the inhibition at 1 µM at Kv1.5 worked out at 85%. In addition, the concentration for half-maximal inhibition (IC50) in the experiment with L-type calcium channels turned out to be 4 µM.

`CCOc1ccc(CCN2C(=O)N(NS(C)(=O)=O)CC2c2ccc(OC)cc2)cc1` (stereo not drawn) [Compound 113, N-{3-[2-(4-ethoxyphenyl)ethyl]-4-(4-methoxyphenyl)-2-oxoimidazolidin-1-yl}methanesulfonamide] displayed an inhibition at 1 µM at Kv1.5 of 5%.

As to `COc1ccc(CCN2C(=O)N(N)CC2C2(c3ccccc3)CC2)cc1` (stereo not drawn) [Compound 156, 1-amino-3-[2-(4-methoxyphenyl)ethyl]-4-(1-phenylcyclopropyl)imidazolidin-2-one], the inhibition at 1 µM against Kv1.5 came out at 7%.

`COc1ccc(CCN2C(=O)N(NCCn3ccnc3)CC2c2ccc(C(C)(C)C)cc2)cc1` (stereo not drawn) [Compound 121, 4-(4-tert-butylphenyl)-1-{[2-(1H-imidazol-1-yl)ethyl]amino}-3-[2-(4-methoxyphenyl)ethyl]imidazolidin-2-one]: on Kv1.5, the inhibition at 1 µM worked out at 7%.

Regarding `COc1ccc(CCN2C(=O)N(NS(=O)(=O)CC(=O)OCC3c4ccccc4-c4ccccc43)CC2c2ccc(C3CC3)cc2)cc1` (stereo not drawn) [Compound 102, 1-[[2-(9H-fluoren-9-ylmethoxy)-2-oxoethyl]sulfonylamino]-3-[2-(4-methoxyphenyl)ethyl]-4-(4-cyclopropylphenyl)-2-imidazolidinone], the inhibition at 1 µM against Kv1.5 worked out at 6%.

As for `COc1ccc(CCN2C(=O)N(NS(C)(=O)=O)CC2Cc2ccc(F)cc2)cc1` (stereo not drawn) [Compound 120, N-{4-(4-fluorobenzyl)-3-[2-(4-methoxyphenyl)ethyl]-2-oxoimidazolidin-1-yl}methanesulfonamide], the inhibition at 1 µM against Kv1.5 is 5%.

The molecule `COc1ccc(CCN2C(=O)N(NC(=O)Cc3cccnc3)CC2c2ccc(C3CC3)cc2)cc1` (stereo not drawn) [Compound 122, N-{4-(4-cyclopropylphenyl)-3-[2-(4-methoxyphenyl)ethyl]-2-oxoimidazolidin-1-yl}-2-pyridin-3-ylacetamide] gave an inhibition at 1 µM against Kv1.5 of 36%.

`COc1ccc(CCN2C(=O)N(NS(=O)(=O)Cc3cccnc3)CC2c2ccc(F)cc2)cc1` (stereo not drawn) [Compound 139, N-{4-(4-fluorophenyl)-3-[2-(4-methoxyphenyl)ethyl]-2-oxoimidazolidin-1-yl}-1-pyridin-3-ylmethanesulfonamide]: the inhibition at 1 µM on Kv1.5 is 14%.

At Kv1.5, `COc1ccc(CCN2C(=O)N(NS(=O)(=O)CC(=O)O)CC2c2ccc(C3CC3)cc2)cc1` (stereo not drawn) [Compound 174, [[[4-(4-cyclopropylphenyl)-3-[2-(4-methoxyphenyl)ethyl]-2-oxo-imidazolidin-1-yl]amino]sulfonyl]acetic acid] registered an inhibition at 1 µM of 9%.

Take `COc1ccc(CCCN2C(=O)N(NS(=O)(=O)CS(C)(=O)=O)CC2c2ccc(OC)cc2)cc1` (stereo not drawn) [Compound 126, N-{4-(4-methoxyphenyl)-3-[3-(4-methoxyphenyl)propyl]-2-oxoimidazolidin-1-yl}-1-(methylsulfonyl)methanesulfonamide]: the inhibition at 1 µM against Kv1.5 is 46%.

Molecule `COc1ccc(CCN2C(=O)N(NC(N)=O)CC2c2ccc(C)c(C)c2)cc1` (stereo not drawn) [Compound 70, {2-Oxo-3-[2-(4-methoxyphenyl)ethyl]-4-(3,4-dimethylphenyl)-imidazolidin-1-yl}-urea] showed an inhibition at 1 µM on Kv1.5 of 22%.

`COc1ccc(CCN2C(=O)N(NCc3ccccn3)CC2c2ccc(C)c(C)c2)cc1` (stereo not drawn) [Compound 93, 1-[(Pyridin-2-ylmethyl)amino]-3-[2-(4-methoxyphenyl)ethyl]-4-(3,4-dimethylphenyl)-2-imidazolidinone]: testing at 1 µM at Kv1.5 gave an inhibition of 46%.

As for `COc1ccc(CCCN2C(=O)N(N)CC2c2ccc(OC)cc2)cc1` (stereo not drawn) [Compound 3, 1-Amino-4-(4-methoxyphenyl)-3-[3-(4-methoxyphenyl)propyl]-2-imidazolidinone], at Kv1.5, at 1 µM the inhibition was 13%.

`CN(C)CCOc1ccc(CCN2C(=O)N(NS(C)(=O)=O)CC2c2ccc(C(C)(C)C)cc2)cc1` (stereo not drawn) [Compound 118, N-[4-(4-tert-butylphenyl)-3-(2-{4-[2-(dimethylamino)ethoxy]phenyl}ethyl)-2-oxoimidazolidin-1-yl]methanesulfonamide] yielded an inhibition at 1 µM against Kv1.5 of 9%.

On to `COc1ccc(CCN2C(=O)N(NS(=O)(=O)C(F)(F)F)CC2c2ccc(C(C)(C)C)cc2)cc1` (stereo not drawn) [Compound 148, N-{4-(4-tert-butylphenyl)-3-[2-(4-methoxyphenyl)ethyl]-2-oxoimidazolidin-1-yl}-1,1,1-trifluoromethanesulfonamide], for which 1 µM produced 2% inhibition on Kv1.5.
